Laboratory results published in patent publication US5756327A, “Recombinant mycobacterial isoleucyl-tRNA synthetase genes, tester strains and assays” (priority 1995, dated 1998).

Assays:
[1] = system: E. coli DH5α cells expressing the M. tuberculosis IleRS gene (on pKS-56); format: cell-based
E. coli IleRS = conditions: Hughes and Mellows, Biochem. J. 176:305-318 (1978); cited from earlier work
[2] = system: DH5α cells expressing wild-type IleRS on a plasmid (pKS21); assay: Pseudomonic acid (PMA) rescue, growth in liquid culture (A600); format: cell-based, E. coli; conditions: LB plus ampicillin media containing 40 μg/ml PMA; 30° C., 36-40 hours
[3] = system: E. coli cells with the TB GST-IleRS fusion construct, pGX-56; format: cell-based; conditions: as for pKS-56: 40 μg/ml PMA, LB plus ampicillin

Compound: C/C(=C\C(=O)OCCCCCCCCC(=O)O)C[C@@H]1OC[C@H](C[C@@H]2O[C@H]2[C@@H](C)[C@H](C)O)[C@@H](O)[C@H]1O [PMA, pseudomonic acid A]
- inhibition of growth ([1]; LB plus ampicillin media containing 40 μg/ml PMA, 30° C., 36-40 hours): no inhibition of growth
- growth at highest concentration tested ([1]; LB plus ampicillin with 640 μg/ml PMA (higher concentrations were not tested)): continued to grow
- sensitivity of E. coli IleRS to PMA (E. coli IleRS): extremely sensitive
- inhibition of growth [2]: completely inhibited
- inhibition of growth [3]: Identical results
